According to patent US20150023989A1, “NEW ANTIBODY DRUG CONJUGATES (ADCS) AND THE USE THEREOF” (SEATTLE GENETICS, INC., priority 2011, published 2015):
Where a name gives a salt, the structure may show the parent alone. Where a SMILES comes first, the peptide text is derived from it. [ ]: non-standard residue; d: D form. The star is where a group is joined. X2 = CC(C)[C@@H](C(=O)*)N(C)CCCCCCN1C(=O)CC(SC[C@H](N)C(=O)O)C1=O; X3 = CC(C)[C@@H](C(=O)*)N(C)CCOCCOCCOCCC(=O)NCCCC[C@H](N)C(=O)O; X1 = CC(C)[C@@H](C(=O)*)N(C)CCCCCC(=O)NCCCC[C@H](N)C(=O)O; Dolaproine = CO[C@@H]([C@@H]1CCCN1)[C@@H](C)C(=O)O; Dil = CC[C@H](C)[C@H](NC)[C@@H](CC(=O)O)OC; X4 = C[C@@H](N*)[C@@H](O)c1ccccc1; Oxazinan2yl(1,2) = C1CCN(*)OC1; NMeV = CN[C@H](C(=O)O)C(C)C

Tests used:
[1] = Flux assay using Caco-2 cells (cell permeability); format: in vitro ADME; settings: human, 2 hours incubation
Method: (§1) The cell permeability of a substance can be investigated by means of in vitro testing in a flux assay using Caco-2 cells [M. D. Troutman and D. R. Thakker, Pharm. Res. 20 (8), 1210-1224 (2003)]. For this purpose, the cells were cultured for 15-16 days on 24-well filter plates. For the determination of permeation, the respective working example was applied in a HEPES buffer to the cells either apically (A) or basally (B) and incubated for 2 hours. After 0 hours and after 2 hours, samples were taken from the cis and trans compartments. The samples were separated by HPLC (Agilent 1200, Böblingen, Germany) using reverse phase columns. The HPLC system was coupled via a Turbo Ion Spray Interface to a Triple Quadropol mass spectrometer API 4000 (Applied Biosystems Applera, Darmstadt, Germany). The permeability was evaluated on the basis of a Papp value, which was calculated using the formula published by Schwab et al. [D. Schwab et al., J. Med. Chem. 46, 1716-1725 (2003)].

tubulin = experiment: Fluorescence-based microtubule polymerisation assay; format: biochemical; settings: rate at 1 μM MMAF set at 100%
Method: Tubulin polymerization was investigated using the “Fluorescence-based Microtubule Polymerisation Assay Kit” from Cytoskeleton (Denver, Colo., USA; order number: BK011). With this assay, GTP is added to unpolymerized tubulin, allowing polymerization to take place spontaneously. The assay is based on the binding of the fluorophore 4′,6-diamidino-2-phenylindole (DAPI) to tubulin. Free and bound DAPI can be differentiated on the basis of different emission spectra.
In addition to the buffer control, paclitaxel, with a polymerization-increasing effect, and vinblastin, with a polymerization inhibiting effect, were run additionally as assay controls. Measurement was carried out using 96-well plates with a half base area. The kinetics of the tubulin polymerization were monitored in a Fluorimeter at 37° C. for 1 hour. The excitation wavelength was 355 nm, and emission was monitored at 460 nm. For the region of linear increase within the first 10 minutes, a calculation was made of the change in fluorescence per minute (ΔF/min), which represents the polymerization rate of the microtubuli. The potency of the test substances was quantified on the basis of their respective reduction of the polymerization rate. Table 6 below gives data for the influence of representative working examples on tubulin polymerization.

Caco-2 cells = experiment: Flux assay using Caco-2 cells (cell permeability); format: in vitro ADME; settings: 2 hours incubation
Method: as §1

Structure (SMILES): CC[C@H](C)[C@@H]([C@@H](CC(=O)N1CCC[C@H]1[C@H](OC)[C@@H](C)C(=O)N[C@@H](Cc1ccc(O)cc1)C(=O)N1CCCCO1)OC)N(C)C(=O)[C@@H](NC(=O)[C@H](C(C)C)N(C)CCCCCC(=O)NCCCC[C@H](N)C(=O)O)C(C)C [Example 36, N-(6-{[(5S)-5-Amino-5-carboxypentyl]amino}-6-oxohexyl)-N-methyl-L-valyl-N-[(3R,4S,5S)-1-{(2S)-2-[(1R,2R)-3-{[(2S)-3-(4-hydroxyphenyl)-1-(1,2-oxazinan-2-yl)-1-oxopropan-2-yl]amino}-1-methoxy-2-methyl-3-oxopropyl]pyrrolidin-1-yl}-3-methoxy-5-methyl-1-oxoheptan-4-yl]-N-methyl-L-valinamide trifluoroacetate] (X1-V[Dil][Dolaproine]Y-{Oxazinan2yl(1,2)})
- Papp B→A at 2 h [1]: 0.15 ×10⁻⁶ cm/s

Structure (SMILES): CC[C@H](C)[C@@H]([C@@H](CC(=O)N1CCC[C@H]1[C@H](OC)[C@@H](C)C(=O)N[C@@H](Cc1c[nH]c2ccccc12)C(N)=O)OC)N(C)C(=O)[C@@H](NC(=O)[C@H](C(C)C)N(C)CCCC(=O)NNC(=O)CCCCCN1C(=O)CC(SC[C@H](N)C(=O)O)C1=O)C(C)C (stereo partly drawn) [Example 21, N-(4-{2-[6-(3-{[(2R)-2-Amino-2-carboxyethyl]sulphanyl}-2,5-dioxopyrrolidin-1-yl)hexanoyl]hydrazino}-4-oxobutyl)-N-methyl-L-valyl-N-[(3R,4S,5S)-1-{(2S)-2-[(1R,2R)-3-{[(2S)-1-amino-3-(1H-indol-3-yl)-1-oxopropan-2-yl]amino}-1-methoxy-2-methyl-3-oxopropyl]pyrrolidin-1-yl}-3-methoxy-5-methyl-1-oxoheptan-4-yl]-N-methyl-L-valinamide]
- Papp B→A at 2 h [1]: 0.2 ×10⁻⁶ cm/s
- Tubulin polymerization in the presence of toxophore (tubulin; toxophore 1 μM): 88%
- Tubulin polymerization in the presence of toxophore (tubulin; toxophore 10 μM): 25%

Structure (SMILES): CC[C@H](C)[C@@H]([C@@H](CC(=O)N1CCC[C@H]1[C@H](OC)[C@@H](C)C(=O)N[C@@H](Cc1c[nH]c2ccccc12)C(=O)N1CCCCO1)OC)N(C)C(=O)[C@@H](NC(=O)[C@H](C(C)C)N(C)CCOCCOCCOCCC(=O)NCCCC[C@H](N)C(=O)O)C(C)C [Example 20, N-[(18S)-18-Amino-18-carboxy-12-oxo-3,6,9-trioxa-13-azaoctadec-1-yl]-N-methyl-L-valyl-N-[(3R,4S,5S)-1-{(2S)-2-[(1R,2R)-3-{[(2S)-3-(1H-indol-3-yl)-1-(1,2-oxazinan-2-yl)-1-oxopropan-2-yl]amino}-1-methoxy-2-methyl-3-oxopropyl]pyrrolidin-1-yl}-3-methoxy-5-methyl-1-oxoheptan-4-yl]-N-methyl-L-valinamide trifluoroacetate] (X3-V[Dil][Dolaproine]W-{Oxazinan2yl(1,2)})
- Tubulin polymerization in the presence of toxophore (tubulin; toxophore 1 μM): 60%
- Tubulin polymerization in the presence of toxophore (tubulin; toxophore 10 μM): 0%

Structure (SMILES): CC[C@H](C)[C@@H]([C@@H](CC(=O)N1CCC[C@H]1[C@H](OC)[C@@H](C)C(=O)N[C@@H](Cc1ccccc1)C(=O)O)OC)N(C)C(=O)[C@@H](NC(=O)[C@@H](NC)C(C)C)C(C)C [monomethylauristatin F (MMAF), monomethylauristatin F, reference compound] (H-[NMeV]V[Dil][Dolaproine]F-OH)
- Papp (B-A) (Caco-2 cells): 7.3 ×10⁻⁶ cm/s
- Tubulin polymerization in the presence of toxophore (tubulin; toxophore 1 μM): 100%
- Tubulin polymerization in the presence of toxophore (tubulin; toxophore 10 μM): 34%

Structure (SMILES): CC[C@H](C)[C@@H]([C@@H](CC(=O)N1CCC[C@H]1[C@H](OC)[C@@H](C)C(=O)N[C@@H](Cc1c[nH]c2ccccc12)C(=O)O)OC)N(C)C(=O)[C@@H](NC(=O)[C@H](C(C)C)N(C)CCCCCCN1C(=O)CC(SC[C@H](N)C(=O)O)C1=O)C(C)C (stereo partly drawn) [Example 23, N-[6-(3-{[(2R)-2-Amino-2-carboxyethyl]sulphanyl}-2,5-dioxopyrrolidin-1-yl)hexyl]-N-methyl-L-valyl-N-[(3R,4S,5S)-1-{(2S)-2-[(1R,2R)-3-{[(1S)-1-carboxy-2-(1H-indol-3-yl)ethyl]amino}-1-methoxy-2-methyl-3-oxopropyl]pyrrolidin-1-yl}-3-methoxy-5-methyl-1-oxoheptan-4-yl]-N-methyl-L-valinamide] (X2-V[Dil][Dolaproine]W-OH)
- Papp B→A at 2 h [1]: 0.1 ×10⁻⁶ cm/s

Structure (SMILES): CC[C@H](C)[C@@H]([C@@H](CC(=O)N1CCC[C@H]1[C@H](OC)[C@@H](C)C(=O)N[C@H](C)[C@@H](O)c1ccccc1)OC)N(C)C(=O)[C@@H](NC(=O)[C@@H](NC)C(C)C)C(C)C [monomethylauristatin E (MMAE), monomethylauristatin E, reference compound] (H-[NMeV]V[Dil][Dolaproine]-X4)
- Papp (B-A) (Caco-2 cells): 7.3 ×10⁻⁶ cm/s

Structure (SMILES): CC[C@H](C)[C@@H]([C@@H](CC(=O)N1CCC[C@H]1[C@H](OC)[C@@H](C)C(=O)N[C@@H](Cc1ccc(O)cc1)C(=O)O)OC)N(C)C(=O)[C@@H](NC(=O)[C@H](C(C)C)N(C)CCCCCC(=O)NCCCC[C@H](N)C(=O)O)C(C)C [Example 37, N-(6-{[(5S)-5-Amino-5-carboxypentyl]amino}-6-oxohexyl)-N-methyl-L-valyl-N-[(3R,4S,5S)-1-{(2S)-2-[(1R,2R)-3-{[(1S)-1-carboxy-2-(4-hydroxyphenyl)ethyl]amino}-1-methoxy-2-methyl-3-oxopropyl]pyrrolidin-1-yl}-3-methoxy-5-methyl-1-oxoheptan-4-yl]-N-methyl-L-valinamide trifluoroacetate] (X1-V[Dil][Dolaproine]Y-OH)
- Papp B→A at 2 h [1]: 0.09 ×10⁻⁶ cm/s

Structure (SMILES): CC[C@H](C)[C@@H]([C@@H](CC(=O)N1CCC[C@H]1[C@H](OC)[C@@H](C)C(=O)N[C@@H](Cc1c[nH]c2ccccc12)C(=O)N1CCCCO1)OC)N(C)C(=O)[C@@H](NC(=O)[C@H](C(C)C)N(C)CCCCCCN1C(=O)CC(SC[C@H](N)C(=O)O)C1=O)C(C)C (stereo partly drawn) [Example 24, N-[6-(3-{[(2R)-2-Amino-2-carboxyethyl]sulphanyl}-2,5-dioxopyrrolidin-1-yl)hexyl]-N-methyl-L-valyl-N-[(3R,4S,5S)-1-{(2S)-2-[(1R,2R)-3-{[(2S)-3-(1H-indol-3-yl)-1-(1,2-oxazinan-2-yl)-1-oxopropan-2-yl]amino}-1-methoxy-2-methyl-3-oxopropyl]pyrrolidin-1-yl}-3-methoxy-5-methyl-1-oxoheptan-4-yl]-N-methyl-L-valinamide] (X2-V[Dil][Dolaproine]W-{Oxazinan2yl(1,2)})
- Tubulin polymerization in the presence of toxophore (tubulin; toxophore 1 μM): 121%
- Tubulin polymerization in the presence of toxophore (tubulin; toxophore 10 μM): 35%

Structure (SMILES): CC[C@H](C)[C@@H]([C@@H](CC(=O)N1CCC[C@H]1[C@H](OC)[C@@H](C)C(=O)N[C@@H](Cc1c[nH]c2ccccc12)C(=O)N1CCCCO1)OC)N(C)C(=O)[C@@H](NC(=O)[C@H](C(C)C)N(C)CCCCCC(=O)NCCCC[C@H](N)C(=O)O)C(C)C [Example 18, N-(6-{[(5S)-5-Amino-5-carboxypentyl]amino}-6-oxohexyl)-N-methyl-L-valyl-N-[(3R,4S,5S)-1-{(2S)-2-[(1R,2R)-3-{[(2S)-3-(1H-indol-3-yl)-1-(1,2-oxazinan-2-yl)-1-oxopropan-2-yl]amino}-1-methoxy-2-methyl-3-oxopropyl]pyrrolidin-1-yl}-3-methoxy-5-methyl-1-oxoheptan-4-yl]-N-methyl-L-valinamide trifluoroacetate] (X1-V[Dil][Dolaproine]W-{Oxazinan2yl(1,2)})
- Papp B→A at 2 h [1]: 0.2 ×10⁻⁶ cm/s
- Tubulin polymerization in the presence of toxophore (tubulin; toxophore 1 μM): 45%
- Tubulin polymerization in the presence of toxophore (tubulin; toxophore 10 μM): 1%

Structure (SMILES): CC[C@H](C)[C@@H]([C@@H](CC(=O)N1CCC[C@H]1[C@H](OC)[C@@H](C)C(=O)N[C@@H](Cc1c[nH]c2ccccc12)C(=O)O)OC)N(C)C(=O)[C@@H](NC(=O)[C@H](C(C)C)N(C)CCCCCC(=O)NCCCC[C@H](N)C(=O)O)C(C)C [Example 19, N-(6-{[(5S)-5-Amino-5-carboxypentyl]amino}-6-oxohexyl)-N-methyl-L-valyl-N-[(3R,4S,5S)-1-{(2S)-2-[(1R,2R)-3-{[(1S)-1-carboxy-2-(1H-indol-3-yl)ethyl]amino}-1-methoxy-2-methyl-3-oxopropyl]pyrrolidin-1-yl}-3-methoxy-5-methyl-1-oxoheptan-4-yl]-N-methyl-L-valinamide] (X1-V[Dil][Dolaproine]W-OH)
- Papp B→A at 2 h [1]: 0.1 ×10⁻⁶ cm/s
- Tubulin polymerization in the presence of toxophore (tubulin; toxophore 1 μM): 80%
- Tubulin polymerization in the presence of toxophore (tubulin; toxophore 10 μM): 14%
